The structures appear in SMILES notation. Values after ≈ are worked out from the molar mass of the structure shown. Where two headings read alike, the source gives them in different places.

One data set has as its system S. aureus ATCC 29213. As to the kind of experiment: Minimum inhibitory concentration (MIC) assay, broth microdilution, MSSA. It counts as cell-based. Particulars: Staphylococcus aureus, Table I. Summed up:
(§1)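 NCCLS broth microdilution in Mueller-Hinton II broth, two-fold dilutions giving 0.125–128 μg/mL final, inoculum ~1×10^6 cfu/mL. Plates incubated in ambient air, 37 °C, 18–24 h; MIC taken as lowest concentration preventing visible growth.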
A general note: Dilution methods test growth across graded concentrations, often in twofold steps.

Data set [1] relates to fluoroquinolone-resistant S. aureus ATCC 700699. As to the kind of experiment: Minimum inhibitory concentration (MIC) assay, broth microdilution, MRSA. The conditions noted are these: Staphylococcus aureus. It counts as cell-based. Summed up:
as §1

In the next data set the test system is Hep2. As to the kind of experiment: Cell viability staining with Alamar Blue (compound cytotoxicity). It counts as cell-based, human. Particulars: Table II, comparison of R2 acetyl vs cyano. The procedure:
To determine whether the microcidal effect observed against S. aureus and E. coli is specific to bacterial cells, compounds are screened for cell viability effects on several human cell types. Optimal cell density is first determined by plating cells in a 96-well plate standard sterile tissue culture plates in 100 μl media, 10% FBS at six cell densities from 500 cells/well to 15,000 cells/well. A cell free well containing only media is used as a control. Cells are incubated at 37° C. in a 5% CO2 incubator for 24 hours. 10% culture volume (10 ul) of Alamar Blue (Biosource, DAL1100, 100 mL) is then added. Cells are incubated at 37° C. in a 5% CO2 incubator and read in a Victor V plate reader, 544 nm excitation, 590 nm emission, at 3, 4, and 24 hours after the addition of Alamar Blue. The cell number vs. change in fluorescence is plotted to determine linearity of signal vs. cell number. The optimal density varies between 500-15,000 cells/well depending on the specific cell type. The optimal density is selected based on the highest number of cells that is still in the linear response range. Cells are plated at optimal cell density in a standard sterile tissue culture 96 well plate, and incubated at 37° C., O/N in a 5% CO2 incubator. 12 to 48 hours post-plating media is removed. The cells are washed 1 or 2 times with 1×PBS and replaced with fresh media containing the test compound in 1% DMSO. 24 to 72 hours after addition of compound, the media is removed, and the cells washed 1 to 2 times with 1×PBS. Fresh media containing 1/10 volume of Alamar Blue is then added. Plates are incubated 4 hours at 37° C. in a 5% CO2 incubator and read in a Victor V plate reader, 544 nm excitation, 590 nm emission. Compounds are diluted to 20 micromolar in 1% DMSO and media and screened in duplicate to obtain single concentration cytotoxicity data. Eight concentration points from 0.78 micromolar to 100 micromolar, run in duplicate, are used to determine cyclotoxicity CC50 values. Cells with 1% DMSO and media are used as a negative control, compounds having a known CC50 against a particular cell type are used as positive controls. The change in fluorescence vs. concentration of test compound is plotted to determine the cytotoxicity of the compound.
(Alamar Blue is a resazurin reagent that responds to reducing activity.)

Where [2] appears, read: Table II, comparison of R2 acetyl vs cyano, read-out: MRSA.
The mark [3] stands for this setting: fluoroquinolone-resistant S. aureus ATCC 700699, Table I, read-out: MRSA MIC.

With `COc1c(N2CC[C@@H](CN)C2)c(F)cc2c(=O)c3c(O)c(C#N)sc3n(C3CC3)c12` [Cmp 59, (S)-7-(3-(aminomethyl)pyrrolidin-1-yl)-9-cyclopropyl-6-fluoro-3-hydroxyl-8-methoxy-4-oxo-dihydrothieno[2,3-b] quinoline-2-carbonitrile], the MIC in the data set with S. aureus ATCC 29213 was 0.02 µg/mL (≈ 0.0467 µM); in data set [1] (setting [2]) it was 0.03 µg/mL (≈ 0.07 µM); in data set [1] (setting [3]), < 0.03 µg/mL. Also, in the data set with Hep2, the Cytoxicity is 0.06 µM.
On the same counts, the results for `COc1c(N2CC[C@@H](C(C)(C)N)C2)c(F)cc2c(=O)c3c(O)c(C(C)=O)sc3n(C3CC3)c12` [Cmp 58, (R)-2-acetyl-7-(3-(2-aminopropan-2-yl)pyrrolidin-1-yl)-9-cyclopropyl-6-fluoro-3-hydroxyl-8-methoxythieno [2,3-b]quinolin-4(9H)-one] are 0.13 µg/mL (≈ 0.275 µM), 0.25 µg/mL (≈ 0.528 µM), 0.25 µg/mL (≈ 0.528 µM) and 20 µM.
As for `COc1c(N2CCNCC2)c(F)cc2c(=O)c3c(n(C4CC4)c12)SC(C#N)C3=O` (stereo not drawn) [Cmp 9, 9-cyclopropyl-6-fluoro-3-hydroxyl-8-methoxy-4-oxo-7-(piperazin-1-yl)-4,9-dihydrothieno[2,3-b]quinoline-2-carbonitrile], the MIC in data set [1] (setting [2]) was found to be 0.75 µg/mL (≈ 1.81 µM). This molecule had a Cytoxicity in the data set with Hep2 of 9 µM.
In the case of `COc1c(N2CC[C@@H](CN)C2)c(F)cc2c(=O)c3c(O)c(C(C)=O)sc3n(C3CC3)c12` [Cmp 60, (S)-2-acetyl-7-(3-(aminomethyl)pyrrolidin-1-yl)-9-cyclopropyl-6-fluoro-3-hydroxyl-8-methoxythieno [2,3-b]quinolin-4(9H)-one], the MIC (in the data set on S. aureus ATCC 29213; in data set [1] (setting [2]); in data set [1] (setting [3])) was 0.06 µg/mL (≈ 0.135 µM) throughout. In the data set with Hep2, this molecule yielded a Cytoxicity of 11 µM.
In the case of `COc1c(N2CCNCC2)c(F)cc2c(=O)c3c(O)c(C(C)=O)sc3n(C3CC3)c12` [Cmp 57, 2-acetyl-9-cyclopropyl-6-fluoro-3-hydroxyl-8-methoxy-7-(piperazin-1-yl)thieno[2,3-b]quinolin-4(9H)-one], the MIC amounted to 0.25 µg/mL (≈ 0.579 µM) against S. aureus ATCC 29213, 1 µg/mL (≈ 2.32 µM) in data set [1] (setting [2]) and 1 µg/mL (≈ 2.32 µM) in data set [1] (setting [3]). The same molecule yielded a Cytoxicity in the data set with Hep2 of 57 µM.
On to `COc1c(N2CCCC(CN)C2)c(F)cc2c(=O)c3c(O)c(C(C)=O)sc3n(C3CC3)c12` (stereo not drawn) [Cmp 64, 2-acetyl-7-(3-(aminomethyl)piperidin-1-yl)-9-cyclopropyl-6-fluoro-3-hydroxyl-8-methoxythieno [2,3-b]quinolin-4(9H)-one], for which the MIC against S. aureus ATCC 29213 is 0.13 µg/mL (≈ 0.283 µM); in data set [1] (setting [2]), 0.25 µg/mL (≈ 0.544 µM); in data set [1] (setting [3]), 0.25 µg/mL (≈ 0.544 µM). The Cytoxicity with Hep2 amounted to 19 µM.
Consider `COc1c(N2C[C@H]3CNC[C@H]3C2)c(F)cc2c(=O)c3c(O)c(C#N)sc3n(C3CC3)c12` [Cmp 42, 9-cyclopropyl-6-fluoro-7-((3aR,6aS)-hexahydropyrrolo [3,4-c]pyrrol-2(1H)-yl)-3-hydroxyl-8-methoxy-4-oxo-4,9-dihydrothieno[2,3-b]quinoline-2-carbonitrile], for which the MIC came to 0.25 µg/mL (≈ 0.568 µM) against S. aureus ATCC 29213 and 1 µg/mL (≈ 2.27 µM) in data set [1] (setting [3]).
As to `COc1c(N2CC[C@@H](C(C)(C)N)C2)c(F)cc2c(=O)c3c(n(C4CC4)c12)SC(C#N)C3=O` (stereo partly drawn) [Cmp 10, (R)-7-(3-(2-aminopropan-2-yl)pyrrolidin-1-yl)-9-cyclopropyl-6-fluoro-3-hydroxyl-8-methoxy-4-oxo-4,9-dihydrothieno [2,3-b]quinoline-2-carbonitrile], in data set [1] (setting [2]), the MIC was determined as 0.09 µg/mL (≈ 0.197 µM). The molecule also yielded a Cytoxicity with Hep2 of 2 µM.
As to `COc1c(N2CCCC(CN)C2)c(F)cc2c(=O)c3c(O)c(C#N)sc3n(C3CC3)c12` (stereo not drawn) [Cmp 63, 7-(3-(aminomethyl)piperidin-1-yl)-9-cyclopropyl-6-fluoro-3-hydroxyl-8-methoxy-4-oxo-dihydrothieno[2,3-b] quinoline-2-carbonitrile], the values for the MIC (in the data set with S. aureus ATCC 29213; in data set [1] (setting [2]); in data set [1] (setting [3])) were 0.03 µg/mL (≈ 0.0678 µM), 0.13 µg/mL (≈ 0.294 µM) and 0.13 µg/mL (≈ 0.294 µM), respectively. Moreover, the Cytoxicity in the data set with Hep2 was 0.4 µM.

Source of the values: patent US8173636B2, “Hydroxylthienoquinolones and related compounds as anti-infective agents” (Achillion Pharmaceuticals, Inc., priority 2009, dated 2012).
